Experimental data reported in patent US6927223B1, “Use of serotonin agents for adjunct therapy in the treatment of cancer” (priority 2000, dated 2005).
“Also recorded” adds a separate entry of the source.

Assays:
metastatic melanoma = settings: single agent; cited from earlier work
B16F10 melanoma cells = settings: cited from earlier work; for tumor lung colonization (wet weight of tumor aggregates) versus saline controls: fluoxetine 12, 16, 20 or 40 mg/m^2, amitriptyline 30, 60 or 75 mg/m^2, from 24 hours after i.v. inoculation; for median survival: tumor cells injected i.v., all groups
[1] = 10 mg/kg/day injected i.v. or continuously infused subcutaneously via pump, mice; cited from earlier work
SKMel-28 cells = experiment: Viability of melanoma cells, crystal violet assay; assay type: cell-based, human; settings: SKMel-28, preliminary data from one study
Procedure: (§1) Viability was assessed by the crystal violet assay. […] Values are mean±SE for three experiments. […] Values are for one experiment.
(§2) A375 and SKMel-28 cells were seeded at a density of 20,000 cells in one ml DMEM+10% FBS per well in 24 well plates and cultured for 24 hours. […] The culture plates were removed and the medium from each well was discarded. The cells were fixed with acetic acid:methanol (1:3) for one hour at room temperature. The fixed cells were washed with 80% methanol and stained with crystal violet (0.5%) for one hour. Crystal violet dye is taken up proportionately depending upon the number of cells that are adhered to the plate. Excess dye is removed by washing plates in running distilled water. After the plates were dry, the dye was solubilized in 10% acetic acid. Aliquots of solubilized dye from each well were transferred to a 96 well plate and the absorbance of the color was measured at 585 nm. The effects were compared relative to untreated controls.

A375 melanoma cells [2] = test system: A375 melanoma cells
Procedure: as §1, §2

B16BL6 melanoma = experiment: Established subcutaneous B16BL6 melanoma in water- or ethanol-drinking C57BL6 mice: tumor growth, metastasis, body weight, intake, body fat; settings: for Perigonadal Fat (mg ± SE): necropsy; for Carcass Fat (% ± SE): weight of lipid/dry carcass weight x 100
Procedure: In an effort to approximate the effect of SSRIs on melanomas in clinical situations, administration of the agents began after tumor growth was apparent.
Fourteen to 16 C57BL6 mice per group were inoculated s.c. with 1×10^6 B16BL6 melanoma cells. […] The test agent and saline control were injected daily subcutaneously (s.c.) into the gluteal region opposite from the site of tumor inoculation, approximately two hours before the dark cycle. […] At 21 days the animals were sacrificed.
Female C57/BL6 mice consumed either water or 20% w/v ethanol ad libitum for six weeks prior to inoculation with of melanoma cells. The mice were injected with 1×10^6 tumor cells subcutaneously (s.c.) into the dorsal hip.
Two weeks after inoculation, the animals were divided into four treatment groups: (1) water drinking or (2) ethanol drinking, both groups injected with saline control for seven days; (3) water drinking or (4) ethanol drinking. […] Tumor growth was measured with calipers on days 14, 16, 18, and 20. Mice were killed on day 21 and necropsied.
Perigonadal and carcass fat were determined. Body weight, food consumption, and fluid-consumption were measured continually throughout the experiment.
Perigonadal fat, a measure of body fat content, was removed at necropsy and weighed. Mice were then dehydrated at 60° C. until they reached constant weight. They were then pulverized in a Bel-Art Micro-Mill. The whole carcass was transferred to a soxhlet extractor and the lipid was extracted with chloroform:methanol (2:1) for 24 hours. The extraction cone containing the carcass was removed, air-dried to evaporate the chloroform and methanol, and then weighed. The difference in weight was the weight of carcass lipid. The percentage of carcass lipid was calculated as the weight of lipid/dry carcass weight×100.

B16BL6 melanoma cells = settings: stated jointly for B16BL6 and A375
3T3 adipocytes = experiment: Lipid accumulation in adipocytes differentiated from NIH 3T3 fibroblasts, Oil Red-O staining; assay type: cell-based; settings: 5 μM and 10 μM, 10 days
Procedure: The relative absorbance was calculated as the ratio of absorbance of each treatment to the absorbance of the nondifferentiated (Ndiff) cells.
After 10 days the lipid content was determined by staining the cells with Oil Red-O and determining the intensity of the red color in an uv spectrophotometer. Experiments were done in triplicate.

A375 melanoma cells [3] = settings: stated jointly for B16BL6 and A375
[4] = Ethanol-drinking mice (20% w/v), 10 mg/kg/day s.c. for 7 days
[5] = Water-drinking mice, 10 mg/kg/day s.c. for 7 days

CN(C)/N=N/c1[nH]cnc1C(N)=O [DTIC, dimethyltriazenoimidazole carboxymide]
share of cases of metastatic melanoma with partial remission (metastatic melanoma): about one-quarter

CN(C)CCC=C1c2ccccc2CCc2ccccc21 [amitriptyline]
tumor lung colonization (wet weight of tumor aggregates) versus saline controls (B16F10 melanoma cells): increased tumor lung colonization | median survival (B16F10 melanoma cells): 17 days

CNCCC(Oc1ccc(C(F)(F)F)cc1)c1ccccc1 (stereo not shown) [fluoxetine]
approximate serum level [1]: 100 to 280 ng/mL | major toxicity range (SKMel-28 cells): 8 to 16 µM | cell viability at 16 μM (A375 melanoma cells [2]; A375, 16 μM): almost all the cells were dead | concentration at which drug toxicity is evident (A375 melanoma cells [2]; A375, crystal violet): 4 µM | concentration range of more pronounced toxicity (A375 melanoma cells [2]; A375, crystal violet): 8 to 16 µM | time within which toxicity is exerted (A375 melanoma cells [2]; A375 and SKMel-28, crystal violet): ≤ 24 h | tumor growth rate (B16BL6 melanoma; 10 mg/kg/day s.c. for 7 days, irrespective of water or ethanol consumption): significantly decreased | decrease in wet weight of tumors at necropsy versus saline-injected mice (B16BL6 melanoma; 10 mg/kg/day s.c. for 7 days, necropsy day 21): greater than 2 fold | Perigonadal Fat (mg ± SE) (B16BL6 melanoma; [4]): 192 ± 53 mg | Carcass Fat (% ± SE) (B16BL6 melanoma; [4]): 31.7 ± 2.3 % | Perigonadal Fat (mg ± SE) (B16BL6 melanoma; [5]): 53 ± 25 mg | Carcass Fat (% ± SE) (B16BL6 melanoma; [5]): 25.8 ± 1.4% | tumor volume (B16BL6 melanoma; daily s.c. injection from day 14 to day 21, water- and ethanol-consuming mice): decreased tumor volume | corrected body weight (total body weight minus tumor wet weight), test versus control animals (B16BL6 melanoma; day 21): nearly identical | toxicity of the effective dose (B16BL6 melanoma; mouse, in vivo): non toxic | number and frequency of metastases (B16BL6 melanoma; subcutaneous B16BL6 tumors, 10 mg/kg/day s.c. for 7 days, 10 mg/kg/day): inhibit metastasis; also recorded: greatly reduced | food intake (B16BL6 melanoma; water-drinking mice, experimental period): does not alter food intake | tumor lung colonization (wet weight of tumor aggregates) versus saline controls (B16F10 melanoma cells): increased tumor lung colonization | median survival (B16F10 melanoma cells): 17 days | fluoxetine level that completely inhibited the incorporation of isotope (B16BL6 melanoma cells): about 30 uM | lipid content of differentiated adipocytes (3T3 adipocytes): increases lipid content | fluoxetine level that completely inhibited the incorporation of isotope (A375 melanoma cells [3]): about 30 uM
